Results reported in ChEMBL document CHEMBL3132769, “Fragment growing to retain or alter the selectivity of anchored kinase hinge-binding fragments” (Medchemcomm, 2014).

Assays:
[1] = target: Tyrosine-protein kinase Fyn (Homo sapiens) (UniProt P06241); test: Inhibition of human full length FYN expressed in baculovirus assessed as substrate phosphorylation using fluorescence-labelled peptides as substrate at 0.06 uM after 90 mins by microfluidic peptide phosphorylation assay
[2] = target: Protein kinase C gamma type (Homo sapiens) (UniProt P05129); test: Inhibition of human truncated PKC gamma expressed in baculovirus assessed as substrate phosphorylation using fluorescence-labelled peptides as substrate at 0.2 uM after 90 mins by microfluidic peptide phosphorylation assay
[3] = target: T1, cGMP-dependent protein kinase 1 (Homo sapiens) (UniProt Q13976); test: Inhibition of human full length PKG-1beta expressed in baculovirus assessed as substrate phosphorylation using fluorescence-labelled peptides as substrate at 0.2 uM after 90 mins by microfluidic peptide phosphorylation assay
T1 sequence (whole entry): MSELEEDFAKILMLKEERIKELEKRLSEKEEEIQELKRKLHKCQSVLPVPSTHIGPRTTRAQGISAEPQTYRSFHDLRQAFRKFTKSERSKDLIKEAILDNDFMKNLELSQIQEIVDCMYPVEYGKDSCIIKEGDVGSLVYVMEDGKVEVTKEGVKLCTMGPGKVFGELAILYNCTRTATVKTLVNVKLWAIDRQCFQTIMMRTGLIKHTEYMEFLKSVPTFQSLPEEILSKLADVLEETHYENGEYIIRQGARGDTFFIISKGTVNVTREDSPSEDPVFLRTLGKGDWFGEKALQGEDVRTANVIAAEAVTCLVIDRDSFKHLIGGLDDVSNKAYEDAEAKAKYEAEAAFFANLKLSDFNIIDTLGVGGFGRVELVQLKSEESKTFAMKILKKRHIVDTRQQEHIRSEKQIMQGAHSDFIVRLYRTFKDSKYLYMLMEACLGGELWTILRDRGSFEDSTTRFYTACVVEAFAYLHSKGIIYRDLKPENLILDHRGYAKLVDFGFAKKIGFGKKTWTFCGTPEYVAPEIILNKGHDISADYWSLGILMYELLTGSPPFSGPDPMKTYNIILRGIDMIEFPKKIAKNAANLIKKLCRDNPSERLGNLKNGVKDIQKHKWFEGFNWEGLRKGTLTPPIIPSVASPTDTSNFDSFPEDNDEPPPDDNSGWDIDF

[4] = target: Tyrosine-protein kinase BTK (Homo sapiens) (UniProt Q06187); test: Inhibition of human full length BTK expressed in baculovirus assessed as substrate phosphorylation using fluorescence-labelled peptides as substrate at 420 uM after 90 mins by microfluidic peptide phosphorylation assay
[5] = target: Ribosomal protein S6 kinase alpha-5 (Homo sapiens) (UniProt O75582); test: Inhibition of human full length MSK1 expressed in baculovirus assessed as substrate phosphorylation using fluorescence-labelled peptides as substrate at 420 uM after 90 mins by microfluidic peptide phosphorylation assay
[6] = target: Ribosomal protein S6 kinase alpha-4 (Homo sapiens) (UniProt O75676); test: Inhibition of human full length MSK2 expressed in baculovirus assessed as substrate phosphorylation using fluorescence-labelled peptides as substrate at 95 uM after 90 mins by microfluidic peptide phosphorylation assay
[7] = target: Rho-associated protein kinase 2 (Homo sapiens) (UniProt O75116); test: Inhibition of human ROCK2 catalytic domain expressed in baculovirus assessed as substrate phosphorylation using fluorescence-labelled peptides as substrate at 95 uM after 90 mins by microfluidic peptide phosphorylation assay
[8] = target: Hepatocyte growth factor receptor (Homo sapiens) (UniProt P08581); test: Inhibition of human MET cytoplasmic domain expressed in baculovirus assessed as substrate phosphorylation using fluorescence-labelled peptides as substrate at 2 uM after 90 mins by microfluidic peptide phosphorylation assay
[9] = target: Tyrosine-protein kinase HCK (Homo sapiens) (UniProt P08631); test: Inhibition of human HCK catalytic domain expressed in baculovirus assessed as substrate phosphorylation using fluorescence-labelled peptides as substrate at […] after 90 mins by microfluidic peptide phosphorylation assay
[10] = target: T2, Serine/threonine-protein kinase Nek2 (Homo sapiens) (UniProt P51955); test: Inhibition of human full length NEK2 expressed in baculovirus assessed as substrate phosphorylation using fluorescence-labelled peptides as substrate at 0.1 uM after 90 mins by microfluidic peptide phosphorylation assay
T2 sequence (whole entry): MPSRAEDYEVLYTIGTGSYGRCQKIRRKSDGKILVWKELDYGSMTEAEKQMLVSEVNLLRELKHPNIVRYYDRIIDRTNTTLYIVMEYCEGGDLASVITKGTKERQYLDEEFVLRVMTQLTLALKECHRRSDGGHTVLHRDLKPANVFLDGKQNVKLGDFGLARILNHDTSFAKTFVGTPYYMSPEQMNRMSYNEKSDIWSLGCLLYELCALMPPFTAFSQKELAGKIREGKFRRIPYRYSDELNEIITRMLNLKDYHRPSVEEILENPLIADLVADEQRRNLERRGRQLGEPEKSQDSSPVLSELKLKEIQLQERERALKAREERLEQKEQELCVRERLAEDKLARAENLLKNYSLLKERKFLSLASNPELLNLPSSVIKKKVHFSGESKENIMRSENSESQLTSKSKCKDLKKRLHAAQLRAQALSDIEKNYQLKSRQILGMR

Sequence of Hepatocyte growth factor receptor (Homo sapiens) (P08581 whole entry, the tested form may be a part): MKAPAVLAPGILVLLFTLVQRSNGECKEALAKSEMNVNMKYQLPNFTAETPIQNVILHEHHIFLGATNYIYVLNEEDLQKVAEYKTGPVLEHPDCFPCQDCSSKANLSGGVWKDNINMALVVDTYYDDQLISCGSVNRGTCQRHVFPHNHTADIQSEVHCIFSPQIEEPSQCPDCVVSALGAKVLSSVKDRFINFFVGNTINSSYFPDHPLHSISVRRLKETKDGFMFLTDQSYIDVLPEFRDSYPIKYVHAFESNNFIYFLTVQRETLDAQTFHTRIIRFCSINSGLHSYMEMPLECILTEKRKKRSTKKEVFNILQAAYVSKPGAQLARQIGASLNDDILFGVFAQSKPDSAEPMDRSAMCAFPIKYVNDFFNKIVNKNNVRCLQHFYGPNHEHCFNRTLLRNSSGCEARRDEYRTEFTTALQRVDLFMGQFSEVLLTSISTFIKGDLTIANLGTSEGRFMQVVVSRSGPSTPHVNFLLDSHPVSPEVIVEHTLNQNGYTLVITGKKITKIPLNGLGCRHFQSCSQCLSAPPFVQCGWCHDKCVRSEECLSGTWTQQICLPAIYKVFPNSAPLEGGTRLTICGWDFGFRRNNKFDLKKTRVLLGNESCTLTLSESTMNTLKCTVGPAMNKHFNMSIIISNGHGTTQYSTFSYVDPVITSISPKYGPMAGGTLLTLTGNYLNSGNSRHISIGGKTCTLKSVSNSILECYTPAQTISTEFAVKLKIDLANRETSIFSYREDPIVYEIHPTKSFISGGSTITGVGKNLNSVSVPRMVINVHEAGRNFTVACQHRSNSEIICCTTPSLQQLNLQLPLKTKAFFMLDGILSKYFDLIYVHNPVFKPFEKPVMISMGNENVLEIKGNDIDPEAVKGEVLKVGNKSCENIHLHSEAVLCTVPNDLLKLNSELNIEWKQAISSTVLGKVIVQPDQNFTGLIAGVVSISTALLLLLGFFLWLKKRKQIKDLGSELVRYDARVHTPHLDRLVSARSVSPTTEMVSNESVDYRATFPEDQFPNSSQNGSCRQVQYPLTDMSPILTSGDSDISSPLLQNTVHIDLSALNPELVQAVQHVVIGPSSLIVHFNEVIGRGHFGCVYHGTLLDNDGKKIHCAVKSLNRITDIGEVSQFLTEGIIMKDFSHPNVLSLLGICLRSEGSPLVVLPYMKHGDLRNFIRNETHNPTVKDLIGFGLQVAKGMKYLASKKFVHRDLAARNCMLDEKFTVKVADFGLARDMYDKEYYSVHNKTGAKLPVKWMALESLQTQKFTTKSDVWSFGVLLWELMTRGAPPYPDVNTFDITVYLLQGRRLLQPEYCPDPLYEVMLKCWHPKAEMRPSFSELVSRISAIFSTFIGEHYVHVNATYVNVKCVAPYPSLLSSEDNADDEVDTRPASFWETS
Sequence of Ribosomal protein S6 kinase alpha-5 (Homo sapiens) (O75582 whole entry, looked up): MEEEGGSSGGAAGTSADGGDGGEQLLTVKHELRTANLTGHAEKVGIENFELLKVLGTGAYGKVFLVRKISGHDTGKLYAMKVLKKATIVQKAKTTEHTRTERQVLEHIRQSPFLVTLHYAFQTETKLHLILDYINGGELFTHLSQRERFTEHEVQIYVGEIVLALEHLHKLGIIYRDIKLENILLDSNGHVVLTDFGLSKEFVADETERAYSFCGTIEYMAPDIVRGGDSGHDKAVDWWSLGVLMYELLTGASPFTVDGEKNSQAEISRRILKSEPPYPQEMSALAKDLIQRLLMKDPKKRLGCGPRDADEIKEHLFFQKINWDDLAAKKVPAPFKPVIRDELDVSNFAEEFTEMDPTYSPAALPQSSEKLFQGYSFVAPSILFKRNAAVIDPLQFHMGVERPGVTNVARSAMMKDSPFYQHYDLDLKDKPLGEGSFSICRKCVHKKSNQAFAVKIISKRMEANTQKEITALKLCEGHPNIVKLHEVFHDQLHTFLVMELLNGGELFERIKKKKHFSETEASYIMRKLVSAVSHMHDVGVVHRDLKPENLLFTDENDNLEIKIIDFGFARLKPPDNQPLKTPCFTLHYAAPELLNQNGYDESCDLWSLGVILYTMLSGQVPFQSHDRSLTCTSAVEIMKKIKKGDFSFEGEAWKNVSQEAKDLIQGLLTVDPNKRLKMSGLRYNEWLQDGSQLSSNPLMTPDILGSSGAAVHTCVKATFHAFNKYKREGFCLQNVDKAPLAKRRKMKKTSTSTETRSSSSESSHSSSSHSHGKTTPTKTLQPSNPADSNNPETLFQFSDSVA
Sequence of Tyrosine-protein kinase Fyn (Homo sapiens) (P06241 2-537 limits assumed): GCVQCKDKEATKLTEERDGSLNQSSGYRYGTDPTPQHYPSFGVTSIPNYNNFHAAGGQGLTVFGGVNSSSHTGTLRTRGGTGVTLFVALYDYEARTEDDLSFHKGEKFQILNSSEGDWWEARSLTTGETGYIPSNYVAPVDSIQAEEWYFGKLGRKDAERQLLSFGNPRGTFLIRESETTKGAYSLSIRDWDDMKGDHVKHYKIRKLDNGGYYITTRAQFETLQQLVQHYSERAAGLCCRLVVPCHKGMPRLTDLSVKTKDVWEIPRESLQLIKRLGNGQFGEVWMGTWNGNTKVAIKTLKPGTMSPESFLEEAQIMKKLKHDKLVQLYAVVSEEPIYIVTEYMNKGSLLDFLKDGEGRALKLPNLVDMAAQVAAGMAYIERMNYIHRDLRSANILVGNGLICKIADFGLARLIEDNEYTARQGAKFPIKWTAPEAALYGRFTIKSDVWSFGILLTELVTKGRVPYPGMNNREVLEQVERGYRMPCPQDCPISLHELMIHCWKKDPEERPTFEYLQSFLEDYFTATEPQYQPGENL
Sequence of Tyrosine-protein kinase BTK (Homo sapiens) (Q06187 whole entry): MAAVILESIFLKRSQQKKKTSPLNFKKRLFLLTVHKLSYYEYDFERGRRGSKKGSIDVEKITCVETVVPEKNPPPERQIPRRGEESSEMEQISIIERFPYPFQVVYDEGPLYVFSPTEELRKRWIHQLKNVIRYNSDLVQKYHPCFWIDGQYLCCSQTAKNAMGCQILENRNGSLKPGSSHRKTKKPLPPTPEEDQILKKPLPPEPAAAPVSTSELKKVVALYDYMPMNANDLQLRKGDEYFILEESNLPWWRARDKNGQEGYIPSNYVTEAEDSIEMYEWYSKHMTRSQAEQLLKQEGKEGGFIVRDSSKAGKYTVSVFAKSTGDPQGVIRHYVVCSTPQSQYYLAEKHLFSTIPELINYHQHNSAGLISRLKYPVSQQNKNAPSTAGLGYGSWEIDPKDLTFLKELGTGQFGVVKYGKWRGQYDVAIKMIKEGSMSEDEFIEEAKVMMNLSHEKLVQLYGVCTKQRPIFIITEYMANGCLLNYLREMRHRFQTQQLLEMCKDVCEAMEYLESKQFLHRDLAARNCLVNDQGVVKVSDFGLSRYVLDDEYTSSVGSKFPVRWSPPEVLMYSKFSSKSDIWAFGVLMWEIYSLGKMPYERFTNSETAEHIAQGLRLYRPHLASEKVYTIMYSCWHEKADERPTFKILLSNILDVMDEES
Sequence of Ribosomal protein S6 kinase alpha-4 (Homo sapiens) (O75676 whole entry, looked up, the tested form may be a part): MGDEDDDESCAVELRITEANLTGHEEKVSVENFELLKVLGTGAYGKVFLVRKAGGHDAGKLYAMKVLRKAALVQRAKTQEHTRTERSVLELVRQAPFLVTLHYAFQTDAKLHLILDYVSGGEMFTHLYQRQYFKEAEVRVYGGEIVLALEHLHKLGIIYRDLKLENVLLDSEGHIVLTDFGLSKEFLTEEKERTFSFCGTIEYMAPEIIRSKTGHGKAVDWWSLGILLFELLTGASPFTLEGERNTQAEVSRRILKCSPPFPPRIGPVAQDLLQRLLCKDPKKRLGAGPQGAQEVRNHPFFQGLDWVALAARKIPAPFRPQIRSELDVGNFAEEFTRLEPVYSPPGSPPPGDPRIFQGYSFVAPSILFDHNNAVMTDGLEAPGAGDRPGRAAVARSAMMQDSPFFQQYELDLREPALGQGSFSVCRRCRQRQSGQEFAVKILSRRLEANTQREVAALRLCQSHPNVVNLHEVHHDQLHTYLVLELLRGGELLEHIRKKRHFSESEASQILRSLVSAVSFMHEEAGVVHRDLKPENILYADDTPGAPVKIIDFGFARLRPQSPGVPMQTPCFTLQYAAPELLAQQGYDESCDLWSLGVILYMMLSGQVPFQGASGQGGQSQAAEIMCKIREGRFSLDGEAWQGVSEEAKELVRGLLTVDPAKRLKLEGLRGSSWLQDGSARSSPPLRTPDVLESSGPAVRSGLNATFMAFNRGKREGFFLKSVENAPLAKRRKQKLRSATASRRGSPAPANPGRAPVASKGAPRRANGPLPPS
Sequence of Tyrosine-protein kinase HCK (Homo sapiens) (P08631 2-526 limits assumed): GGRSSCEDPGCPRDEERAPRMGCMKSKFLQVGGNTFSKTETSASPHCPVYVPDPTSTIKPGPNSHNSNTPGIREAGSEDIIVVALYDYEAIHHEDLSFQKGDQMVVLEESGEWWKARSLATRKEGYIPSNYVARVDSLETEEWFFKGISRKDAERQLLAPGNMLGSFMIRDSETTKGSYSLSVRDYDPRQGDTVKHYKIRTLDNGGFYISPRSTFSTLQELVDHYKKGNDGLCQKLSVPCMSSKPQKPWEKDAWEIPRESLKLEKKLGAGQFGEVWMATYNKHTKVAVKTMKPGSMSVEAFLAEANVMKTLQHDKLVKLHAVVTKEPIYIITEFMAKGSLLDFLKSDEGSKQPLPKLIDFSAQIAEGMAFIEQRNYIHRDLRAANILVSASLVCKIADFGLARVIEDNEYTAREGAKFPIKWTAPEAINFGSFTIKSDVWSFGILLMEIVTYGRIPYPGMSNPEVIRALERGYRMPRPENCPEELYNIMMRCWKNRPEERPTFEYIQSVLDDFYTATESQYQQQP

`NC1(Cc2ccc(Cl)cc2)CCN(c2ncnc3[nH]ccc23)CC1` was tested, and the inhibition [1] was 3%.

For `Clc1ccc(C2(c3ccc(-c4ncnc5[nH]cnc45)cc3)CCNCC2)cc1`, the inhibition [2] was 80% and the inhibition [3] was 88.5%.

Work on `c1nc(N2CCOCC2)c2nc[nH]c2n1` yielded an inhibition [4] of 55% and an inhibition [5] of 78.5%.

With `NCCc1ccc(-c2ncnc3[nH]cnc23)cc1` the inhibition [6] was 54% and the inhibition [7] was 93.5%.

`NC1CCN(c2ncnc3[nH]ccc23)CC1` was tested, and the inhibition [8] was 0%.

`COC(=O)c1cnc(Nc2cnc(C#N)cn2)cc1NCC1CCNCC1` was tested, and the inhibition [9] was 11%.

`C[C@H](CN(C)C)Oc1nc(Nc2cc3cccc(Cl)c3cn2)cnc1C#N` was tested, and the inhibition [10] was 2%.
